Reference: patent publication US20240246934A1, “QUINAZOLINE-BASED COMPOUND, COMPOSITION, AND APPLICATION OF QUINAZOLINE-BASED COMPOUND” (BEIJING SCITECH-MQ PHARMACEUTICALS LIMITED, priority 2021, published 2024)
Where two headings read alike, the source gives them in different places.

Experiment: Brain tissue and whole blood concentration in SD rats after oral administration
Type: in vivo
Conditions: rat, PO 10 mg/kg, 2 h after administration
Method: In this assay, the pharmacokinetic characteristics of the compounds of the present application were assayed after administration of some of the compounds of the present application to SD rats by single oral administration and intravenous injection.
2. […] The mixture was stirred, vortexed and/or sonicated. Once a solution was obtained, the vehicle was gradually added to a final volume to reach the target concentration. The solution was vortexed, and sonicated to obtain a homogeneous solution.
Meanwhile, the IV group was not fasted and the PO group was fasted overnight (>12 hrs) and given food 2 hrs after drug administration. All animals had free access to water. The dosing regimen and pharmacokinetic sampling regimen are given in Table 6 and Table 7 below, respectively.
Rats were administered according to the above regimen, and blood and brain tissue samples were collected and processed at predetermined time points (collection and processing were performed according to conventional methods in the art).
The supernatant was diluted 2-fold with ultra-pure water, and the samples were analyzed by LC/MS.
Brain tissues were weighed and homogenized by adding 4-fold homogenizing solution (acetonitrile/water=1/1 v/v). […] The supernatant was diluted 2-fold with ultra-pure water, and the samples were analyzed by LC/MS.

**Q.** What does the source list for CCN1CCC[C@@H]1/C=C/C(=O)Nc1ccc2ncnc(Nc3ccc(OCc4ccccn4)c(Cl)c3)c2c1OC [Example 29, (R,E)-N-(4-((3-chloro-4-(pyridin-2-ylmethoxy)phenyl)amino)-5-methoxyquinazolin-6-yl)-3-(1-ethylpyrrolidin-2-yl)acrylamide]?
**A.** concentration at 2 h (whole blood, read-out: Blood drug concentration): 0.121 µg/mL; Kp at 2 h (brain / whole blood, read-out: Brain tissue/blood ratio): 0.36; concentration at 2 h (brain, NA: Exposure was too low to be counted, read-out: Brain tissue concentration): 43.5 ng/g
